The results in this text go back to PubChem BioAssay (NCI).

Test systems include A498 renal; A549 NSCLC; RXF 393 renal; CCRF-CEM leukemia; UACC-62 melanoma; PC-3 prostate; SNB-19 CNS; UACC-257 melanoma; SK-MEL-28 melanoma; SNB-75 CNS.
What all share (assay): NCI-60 cell line screen, 48 h

Values joined by “and” are separate entries in the source; they are usually repeats but may differ in a detail not shown here. Equal entries are not always repeated.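 Cells were grown in 96-well plates and exposed to each compound for 48 hours at five concentrations; endpoints were interpolated linearly between bracketing concentrations, or set to the highest concentration if not reached. Abbreviation: GI50, concentration required for 50% inhibition of growth. At the TGI there is no net growth.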

For `CC1=C(C(=O)Nc2cc(F)c(F)cc2F)C(c2ccc(N(C)C)cc2)C(C(=O)Nc2cc(F)c(F)cc2F)=C(C)N1`, the TGI is 80.5 µM in the assay on A498 renal; over 60.5 µM in the assay with A549 NSCLC; 64.3 µM in the assay on RXF 393 renal; over 85.9 µM in the assay with CCRF-CEM leukemia; 89.8 µM in the assay with UACC-62 melanoma; over 100 µM in the assay on PC-3 prostate. The TGI with SNB-19 CNS is over 100 µM; in the assay on UACC-257 melanoma it was over 82.8 µM; in the assay with SK-MEL-28 melanoma it was over 100 µM; with SNB-75 CNS, 48.1 µM. In addition, the GI50 with UACC-62 melanoma is 12200 nM; with PC-3 prostate, 13.7 µM.
For `Cc1ccc(S(=O)(=O)NC(=O)Nc2ncn[nH]2)cc1`, the TGI in the assay on A498 renal, in the assay on A549 NSCLC, in the assay with RXF 393 renal, in the assay with CCRF-CEM leukemia, in the assay with UACC-62 melanoma and in the assay with PC-3 prostate was over 100 µM throughout. Further, the TGI with SNB-19 CNS, with UACC-257 melanoma, in the assay with SK-MEL-28 melanoma and in the assay on SNB-75 CNS was over 100 µM throughout.
As to `O=C1/C(=C/c2ccc([N+](=O)[O-])s2)Oc2ccc(Br)cc21`, the GI50 is 2310 nM in the assay on A498 renal; 376 nM in the assay on A549 NSCLC; 274 nM in the assay with RXF 393 renal; 310 nM in the assay with CCRF-CEM leukemia; 297 nM in the assay on UACC-62 melanoma; 0.251 µM with PC-3 prostate. The GI50 with SNB-19 CNS was 420 nM; in the assay on UACC-257 melanoma it was 572 nM; in the assay on SK-MEL-28 melanoma, 302 nM; with SNB-75 CNS, 342 nM. Moreover, the TGI in the assay on A498 renal turned out to be 6.32 µM; in the assay on A549 NSCLC it was 1.68 µM; in the assay with RXF 393 renal, 0.813 µM; with CCRF-CEM leukemia, 0.961 µM; with UACC-62 melanoma, 0.963 µM; with PC-3 prostate, 0.774 µM. Further, the TGI with SNB-19 CNS turned out to be 2.13 µM; in the assay with UACC-257 melanoma, 3.96 µM; in the assay with SK-MEL-28 melanoma, 0.951 µM; in the assay on SNB-75 CNS, 4.17 µM.
Consider `COC(=O)c1cc2c3cc(Cl)ccc3[nH]c2c2ncccc12`, for which the GI50 was over 100000 nM in the assay with A498 renal; over 100000 nM with A549 NSCLC; over 100000 nM in the assay with RXF 393 renal; over 100000 nM in the assay with CCRF-CEM leukemia; over 100000 nM with UACC-62 melanoma; over 100 µM in the assay with PC-3 prostate. In addition, the GI50 in the assay with SNB-19 CNS, with UACC-257 melanoma, with SK-MEL-28 melanoma and in the assay with SNB-75 CNS was over 100000 nM throughout. Besides, the TGI in the assay on A498 renal, in the assay with A549 NSCLC, with RXF 393 renal, with CCRF-CEM leukemia, in the assay with UACC-62 melanoma and in the assay on PC-3 prostate was over 100 µM each time. In addition, the TGI in the assay on SNB-19 CNS, in the assay on UACC-257 melanoma, in the assay on SK-MEL-28 melanoma and in the assay on SNB-75 CNS was over 100 µM in each case.
In the case of `CCOC(=O)c1ccc(N[C@@H]2c3cc4c(cc3C(c3cc(OC)c(O)c(OC)c3)[C@H]3C(=O)OCC32)OCO4)cc1` (stereo partly specified), the GI50 is 332 nM in the assay on A498 renal; 103 nM in the assay with A549 NSCLC; 426 nM and 1950 nM in the assay on RXF 393 renal; 116 nM in the assay with CCRF-CEM leukemia; 382 nM in the assay on UACC-62 melanoma; 261 nM with SNB-19 CNS. The GI50 in the assay on SK-MEL-28 melanoma was 935 nM; with SNB-75 CNS it was 308 nM. The TGI in the assay with A498 renal is 1.92 µM; in the assay with A549 NSCLC, 2.76 µM; with RXF 393 renal, 5.93 µM; with CCRF-CEM leukemia it was 0.925 µM and 1.81 µM; in the assay on UACC-62 melanoma, 4.08 µM; with PC-3 prostate, 20.6 µM. Moreover, the TGI in the assay on SNB-19 CNS was 22.2 µM; in the assay with UACC-257 melanoma, 25 µM; in the assay with SK-MEL-28 melanoma, 8.59 µM; in the assay on SNB-75 CNS, 0.909 µM and 4.98 µM.
With `CC(C)C[C@H](NC(=O)[C@@H](N)Cc1cccc2ccccc12)B(O)O`, the GI50 is 202 nM in the assay with A498 renal; 926 nM with A549 NSCLC; 136 nM with RXF 393 renal; 72.4 nM and < 10 nM in the assay on CCRF-CEM leukemia; 425 nM in the assay with UACC-62 melanoma; 1.12 µM in the assay on PC-3 prostate. Moreover, the GI50 was 110 nM with SNB-19 CNS, 315 nM with UACC-257 melanoma, 186 nM in the assay on SK-MEL-28 melanoma and 1070 nM in the assay on SNB-75 CNS. Moreover, the TGI with UACC-62 melanoma was 1.28 µM and 0.148 µM; in the assay with SNB-19 CNS, 50 µM and > 100 µM; in the assay on UACC-257 melanoma, 1.12 µM and 0.114 µM.
As for `C[C@H]1CCC/C=C/[C@@H]2C[C@H](O)C[C@H]2[C@H](O)C(O)C(O)C(=O)O1` (stereo partly specified), the GI50 is 2290 nM in the assay with A498 renal; 4540 nM with A549 NSCLC; 2520 nM in the assay with RXF 393 renal; 2730 nM in the assay on CCRF-CEM leukemia; 1070 nM in the assay with UACC-62 melanoma; 3.44 µM in the assay with PC-3 prostate. Besides, the GI50 in the assay on SNB-19 CNS is 3350 nM; in the assay with UACC-257 melanoma it was 1100 nM; with SK-MEL-28 melanoma it was 1250 nM; with SNB-75 CNS, 578 nM. In addition, the TGI in the assay with A498 renal was 7.96 µM; with A549 NSCLC, over 100 µM; with RXF 393 renal it was over 24.6 µM; in the assay with CCRF-CEM leukemia it was over 25.9 µM; in the assay with PC-3 prostate, over 29.8 µM; in the assay on SNB-19 CNS it was over 100 µM. Besides, the TGI in the assay with UACC-257 melanoma and in the assay on SK-MEL-28 melanoma was over 100 µM in each case.
Consider `CC(=O)OC1C(C)OC(Oc2c(-c3ccc(O)cc3)oc3cc(O)cc(O)c3c2=O)C(O)C1OC(C)=O` (stereo unspecified), for which the GI50 in the assay on A498 renal is over 52400 nM; in the assay on A549 NSCLC, 49800 nM; with RXF 393 renal it was 24200 nM; with CCRF-CEM leukemia it was 30200 nM; with UACC-62 melanoma it was 21400 nM; in the assay on PC-3 prostate, 30.5 µM. Also, the GI50 is 36200 nM in the assay on SNB-19 CNS, 27600 nM in the assay on UACC-257 melanoma, 29000 nM in the assay with SK-MEL-28 melanoma and 27500 nM in the assay on SNB-75 CNS. Also, the TGI was over 100 µM in the assay with A498 renal; over 100 µM in the assay with A549 NSCLC; 71.8 µM in the assay with RXF 393 renal; over 100 µM in the assay with CCRF-CEM leukemia; over 60.5 µM in the assay with UACC-62 melanoma; over 100 µM in the assay on PC-3 prostate. The TGI with SNB-19 CNS was over 100 µM; in the assay with UACC-257 melanoma, over 79.9 µM; with SK-MEL-28 melanoma, over 100 µM; in the assay with SNB-75 CNS, over 93.9 µM.
For the compound `O=C1/C(=C/c2ccccc2)CN(C(=O)/C=C/c2ccccc2)C/C1=C\c1ccccc1`, the TGI with A498 renal was determined as 92 µM; with A549 NSCLC it was 37.2 µM; in the assay with RXF 393 renal, 30.4 µM; in the assay with CCRF-CEM leukemia, 9 µM; in the assay with UACC-62 melanoma it was 16.2 µM; in the assay with PC-3 prostate, 4.33 µM. The TGI was found to be 25.9 µM in the assay on SNB-19 CNS, 37 µM in the assay on UACC-257 melanoma, 21.4 µM in the assay with SK-MEL-28 melanoma and 60.5 µM in the assay with SNB-75 CNS.
